According to PMC12621202, “RTx-303, an Orally Bioavailable Polθ Polymerase Inhibitor That Potentiates PARP Inhibitors in BRCA Mutant Tumors” (Journal of Medicinal Chemistry, 2025):
Read-outs that look alike come from different tables or passages of the source.

Legend:
[1] = Solubility (PBS, 2% DMSO); type: physicochemical; conditions: PBS with 2% DMSO, aqueous buffer, kinetic from dmso stock
Excerpt: Solubility T1/2 simulated simulated
(PBS, 2% T1/2 mouse intestinal gastric
CF R1 OHOH DMSO) PBS plasma fluid fluid
F3C N N >200 µMN >3 hr >3 hr >3 hr > 3 hr
NN >200 HOµMN >3 hr >3 hr >3 hr > 3 hr
Supplementary Fig. 2 Solubility and stability of RTx-284 and RTx-283.

[2] = Stability in PBS, simulated gastric fluid and simulated intestinal fluid; type: in vitro ADME; conditions: for stability in simulated intestinal and gastric fluids, plasma and PBS buffer: statement in words covering all four matrices
Protocol: Stability in PBS, SGF (simulated gastric fluid) and SIF (simulated intestinal fluid) assays. The stability of test compounds was determined in Dulbecco’s PBS (control solution; pH = 7.4; 136.9 mM NaCl; 2.68 mM KCl; 8.1 mM Na2HPO4; 1.47 mM KH2PO4; 0.9 mM CaCl2 and MgCl2, US Pharmacopeia, defined (US Pharmacopoeia 33–28NF; 2010) Simulated Gastric Fluid (SGF; 0.2% NaCl, 84 mM HCl, pH 1.2 with 3.2 mg/mL pepsin from porcine gastric mucosa), or US Pharmacopoeia-defined Simulated Intestinal Fluid (SIF; 50 mM potassium phosphate, pH 6.8; with 10 mg/mL pancreatin from porcine pancreas). Reactions were conducted in 96-well deep-well (1 mL) polypropylene plates in duplicate. 540 μL of prewarmed 1.11× PBS, SGF or SIF was added to wells of the prewarmed plate in the Labnet Vortemp incubator at 37 °C. Reactions were initiated by adding 60 μL of a 50 μM test compound in water (final concentration of 5 μM) to test wells. Samples were mixed and incubated with gentle shaking. At 0, 30, 90, 210 min, 75 μL aliquots were transferred to a stop plate (96-well plate with 300 μL of ACN:water 1:1 with 0.05 μM propafenone) on ice. After all time points, the stop plate was centrifuged 10 min at 2270 × g in a Beckman Coulter Allegra 6R centrifuge and 170 μL of the supernatants were transferred to a Waters Acquity UPLC 700 μL 96-well sample plate and sealed with a cap mat. After centrifugation (10 min; 4000 × g), supernatants were analyzed by LC/MS as described. Standard curves (0–1000 nM) were generated in PBS and plasma. Data were fit to a one-phase decay equation using GraphPad Prism 5.04 to generate T1/2 values.

[3] = biological target: T1, recombinant human Polθ-pol (Homo sapiens, UniProt O75417); experiment: Fluorescent-based IC50 DNA synthesis assay; type: biochemical; conditions: n=3
T1 construct: purified recombinant human Polθ-pol (comprising amino acid residues 1792–2590); made in house
T1 sequence (O75417 1792-2590): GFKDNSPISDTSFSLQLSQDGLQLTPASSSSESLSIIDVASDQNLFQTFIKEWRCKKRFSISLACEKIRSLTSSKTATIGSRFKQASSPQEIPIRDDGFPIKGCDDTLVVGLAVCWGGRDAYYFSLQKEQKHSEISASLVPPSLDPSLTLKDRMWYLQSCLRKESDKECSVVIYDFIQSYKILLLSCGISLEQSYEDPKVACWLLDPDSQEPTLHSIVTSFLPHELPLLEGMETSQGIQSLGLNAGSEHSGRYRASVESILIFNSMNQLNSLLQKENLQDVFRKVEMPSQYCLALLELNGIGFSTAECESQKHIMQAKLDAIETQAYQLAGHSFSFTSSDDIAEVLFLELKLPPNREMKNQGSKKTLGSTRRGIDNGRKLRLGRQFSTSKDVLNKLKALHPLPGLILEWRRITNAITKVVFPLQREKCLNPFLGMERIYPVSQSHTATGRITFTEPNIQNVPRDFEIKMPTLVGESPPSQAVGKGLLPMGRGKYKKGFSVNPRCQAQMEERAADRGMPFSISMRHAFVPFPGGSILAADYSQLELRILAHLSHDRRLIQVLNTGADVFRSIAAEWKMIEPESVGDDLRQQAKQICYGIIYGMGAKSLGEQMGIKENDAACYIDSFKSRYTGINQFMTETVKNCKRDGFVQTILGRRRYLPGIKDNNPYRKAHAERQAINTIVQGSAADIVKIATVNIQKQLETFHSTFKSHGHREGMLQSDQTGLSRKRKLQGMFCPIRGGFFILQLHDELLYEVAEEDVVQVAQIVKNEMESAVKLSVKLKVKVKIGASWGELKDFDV
Protocol: The biochemical Polθ-pol IC50 assay was developed in a prior report. Briefly, 60 nM of the preannealed primer-template containing a 5′ Cy5 fluorophore-conjugated template strand (RP486-Cy5), a downstream complementary oligo conjugated with a 3′ Iowa BlackReg Dark quencher (RP343BHQRQ) and a primer strand (RP469D) was mixed with 50 μM 2’-deoxyribonucleoside triphosphates (dNTPs), 0.1 mg/mL bovine serum albumin (BSA), 0.01% NP-40, 10% glycerol, 1 mM dithiothreitol (DTT), 10 mM MgCl2, 25 mM TrisHCl pH 7.8 in the presence of 2.5% DMSO with or without various concentrations (7-point dilution series) of Polθ-pol small-molecule inhibitors at 37 °C in a volume of 40 μL. The reactions were initiated by the addition of 5 nM of purified recombinant human Polθ-pol (comprising amino acid residues 1792–2590). The reactions were terminated by the addition of 20 mM EDTA after 18 min, and the Cy5 fluorescence intensity was measured using a CLARIOstar (BMG Labtech) plate reader. Reactions were performed in triplicate and the % inhibition at each concentration of the respective compound was based on the mean.

LogP = type: physicochemical; conditions: method not described
Excerpt: 1 Dimethyl and Monomethyl Side-Chains Improve Metabolic Stability and Cellular Potency | column: LogP

[4] = test system: other recombinant DNA polymerases, including the related A-family Polγ; experiment: DNA polymerase selectivity (primer extension); type: biochemical; conditions: in vitro primer extension
Excerpt: A. Denaturing gel showing primer extension by the indicated DNA polymerases in the presence or absence of RT x-303. B. Bar plot showing % relative extension by the indicated DNA polymerases in the presence and absence of RT x-303.
(also on this page, place not known: Extension to DMSO control RTx-303. % relative RTx-303.)
(1 picture or pasted object on this page, not shown here)

Hepatocyte stability [5] = type: in vitro ADME; conditions: cynomolgus monkey; monkey hepatocytes, male; read-out: Monkey (Cynomologous) ^+ (T1/2 min)
[6] = Rat plasma protein binding; type: in vitro ADME
Excerpt: 5 Pharmacokinetics of Pure Enantiomers and Equipotent Metabolites | column: Avg. free unbound exposure (nM/hr) / Rat plasma protein binding (% free)

Hepatocyte stability [7] = type: in vitro ADME; conditions: dog (Beagle) hepatocytes, male; read-out: Dog (Beagle) ^+ (T1/2 min)
[8] = Dulbecco's PBS, pH 7.4, read-out: T1/2 PBS
[9] = simulated gastric fluid (SGF) with pepsin, pH 1.2, read-out: T1/2 simulated gastric fluid
[10] = simulated intestinal fluid (SIF) with pancreatin, pH 6.8, read-out: T1/2 simulated intestinal fluid

## [2H]C([2H])([2H])N(C(=O)Oc1c(N2CCN(CC(O)CNC)C2=O)cc(C(F)(F)F)cc1C(F)(F)F)c1ccc(F)cc1 (stereo not shown) [RTx-283, 2-(3-(2-Hydroxy-3-(methylamino)propyl)-2-oxoimidazolidin-1-yl)-4,6-bis(trifluoromethyl)phenyl (4-fluorophenyl)(methyl-d3)carbamate]
[1]
  solubility: > 200 µM
[2]; [8]
  half-life at 5 μM: > 180 min
[2]; [9]
  half-life at 5 μM: > 180 min
[2]; [10]
  half-life at 5 μM: > 180 min
[3]
  IC50: 6.1 nM
LogP
  logP: 3.3

## [2H]C([2H])([2H])N(C(=O)Oc1c(N2CCN(CC(O)CN(C)C)C2=O)cc(C(F)(F)F)cc1C(F)(F)F)c1ccc(F)cc1 (stereo not shown) [RTx-284, 2-{3-[3-(Dimethylamino)-2-hydroxypropyl]-2-oxoimidazolidin-1-yl}-4,6-bis(trifluoromethyl)phenyl N-(4-fluorophenyl)-N-(methyl-d3)-carbamate]
[1]
  solubility: > 200 µM
[2]; [8]
  half-life at 5 μM: > 180 min
[2]; [9]
  half-life at 5 μM: > 180 min
[2]; [10]
  half-life at 5 μM: > 180 min
[4]
  inhibition of other DNA polymerases: no inhibition
[3]
  IC50: 5.5 nM
LogP
  logP: 3.7

## [2H]C([2H])([2H])N(C(=O)Oc1c(N2CCN(C[C@H](O)CN(C)C)C2=O)cc(C(F)(F)F)cc1C(F)(F)F)c1ccc(F)cc1 [RTx-303]
[1]
  solubility: > 200 µM
[2]
  stability in simulated intestinal and gastric fluids, plasma and PBS buffer: high stability
Hepatocyte stability [5]
  half-life at 1 μM: 13.2 min
[4]
  inhibition of other DNA polymerases: no significant inhibition
[6]
  Rat plasma protein binding (% free): 9.8 % free
[3]
  IC50: 5.1 nM
Hepatocyte stability [7]
  half-life at 1 μM: 9.9 min

## [2H]C([2H])([2H])N(C(=O)Oc1c(N2CCN(C[C@H](O)CNC)C2=O)cc(C(F)(F)F)cc1C(F)(F)F)c1ccc(F)cc1 [RTx-315]
[2]
  stability in simulated intestinal and gastric fluids, plasma and PBS buffer: high stability
Hepatocyte stability [5]
  half-life at 1 μM: 31.9 min
[6]
  Rat plasma protein binding (% free): 7.1 % free
[3]
  IC50: 13.6 nM
Hepatocyte stability [7]
  half-life at 1 μM: 19.6 min
